According to ChEMBL document CHEMBL1201861, “Genomics of Drug Sensitity in Cancer screening data, Wellcome Trust Sanger Institute”:
pIC50: −log10 of the molar value.

How the values were obtained:
SJRH30 = test: cells; format: functional, cell-based, Homo sapiens; conditions: Homo sapiens, SJRH30;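 note: growth inhibition of human SJRH30 cells, read out with a cell viability assay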
Description: SANGER: Inhibition of human SJRH30 cell growth in a cell viability assay.

LN-405 = test: cells; format: functional, cell-based, Homo sapiens; conditions: Homo sapiens, LN-405
Description: SANGER: Inhibition of human LN-405 cell growth in a cell viability assay.

KMS-12-PE = test: cells; format: functional, cell-based, Homo sapiens; conditions: Homo sapiens, KMS-12-PE;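 note: growth inhibition of human KMS-12-PE cells, measured with a cell viability assay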
Description: SANGER: Inhibition of human KMS-12-PE cell growth in a cell viability assay.

RL = test: cells; format: functional, cell-based, Homo sapiens; conditions: Homo sapiens, RL
Description: SANGER: Inhibition of human RL cell growth in a cell viability assay.

LCLC-97TM1 = test: cells; format: functional, cell-based, Homo sapiens; conditions: Homo sapiens, LCLC-97TM1;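 note: cell viability assay measuring growth inhibition of human LCLC-97TM1 cells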
Description: SANGER: Inhibition of human LCLC-97TM1 cell growth in a cell viability assay.

SK-OV-3 = test: cells; format: functional, cell-based, Homo sapiens; conditions: Homo sapiens, SK-OV-3;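 note: growth inhibition of SK-OV-3 human cells, read out with a cell viability assay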
Description: SANGER: Inhibition of human SK-OV-3 cell growth in a cell viability assay.

BEN = test: cells; format: functional, cell-based, Homo sapiens; conditions: Homo sapiens, BEN;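 note: growth inhibition of the BEN cell line, read out with a cell viability assay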
Description: SANGER: Inhibition of human BEN cell growth in a cell viability assay.

BC1 cell line = test: SANGER: Inhibition of human BC-1 cell growth in a cell viability assay.; format: functional, cell-based; conditions: Homo sapiens, BC1
Daoy = test: cells; format: functional, cell-based, Homo sapiens; conditions: Homo sapiens, Daoy;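 note: daoy cell growth inhibition, read out as cell viability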
Description: SANGER: Inhibition of human Daoy cell growth in a cell viability assay.

HT-1376 = test: cells; format: functional, cell-based, Homo sapiens; conditions: Homo sapiens, HT-1376
Description: SANGER: Inhibition of human HT-1376 cell growth in a cell viability assay.

RD = test: cells; format: functional, cell-based, Homo sapiens; conditions: Homo sapiens, RD
Description: SANGER: Inhibition of human RD cell growth in a cell viability assay.

A-431 = test: cells; format: functional, cell-based, Homo sapiens; conditions: Homo sapiens, A-431;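 note: growth inhibition of A-431 cells, determined with a cell viability read-out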
Description: SANGER: Inhibition of human A431 cell growth in a cell viability assay.

SKG-IIIa = test: cells; format: functional, cell-based, Homo sapiens; conditions: Homo sapiens, SKG-IIIa;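 note: cell growth inhibition, read out with a cell viability assay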
Description: SANGER: Inhibition of human SKG-IIIa cell growth in a cell viability assay.

SW1990 = test: cells; format: functional, cell-based, Homo sapiens; conditions: Homo sapiens, SW1990
Description: SANGER: Inhibition of human SW1990 cell growth in a cell viability assay.

A 172 = test: cells; format: functional, cell-based, Homo sapiens; conditions: Homo sapiens, A 172;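 note: growth inhibition of A172 cells, measured with a cell viability readout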
Description: SANGER: Inhibition of human A172 cell growth in a cell viability assay.

SK-MES-1 = test: cells; format: functional, cell-based, Homo sapiens; conditions: Homo sapiens, SK-MES-1;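 note: growth inhibition of human SK-MES-1 cells, read out with a cell viability assay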
Description: SANGER: Inhibition of human SK-MES-1 cell growth in a cell viability assay.

T47D = test: cells; format: functional, cell-based, Homo sapiens; conditions: Homo sapiens, T47D;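 note: growth inhibition of human T47D cells, measured with a cell viability assay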
Description: SANGER: Inhibition of human T47D cell growth in a cell viability assay.

PC-3 = test: cells; format: functional, cell-based, Homo sapiens; conditions: Homo sapiens, PC-3;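 note: cell viability assay measuring growth inhibition of PC-3 cells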
Description: SANGER: Inhibition of human PC-3 cell growth in a cell viability assay.

HCC1569 = test: cells; format: functional, cell-based, Homo sapiens; conditions: Homo sapiens, HCC1569;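 note: growth inhibition of human HCC1569 cells, read out with a cell viability assay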
Description: SANGER: Inhibition of human HCC1569 cell growth in a cell viability assay.

HCC1937 = test: cells; format: functional, cell-based, Homo sapiens; conditions: Homo sapiens, HCC1937;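 note: growth inhibition measured with a cell viability read-out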
Description: SANGER: Inhibition of human HCC1937 cell growth in a cell viability assay.

UO-31 = test: cells; format: functional, cell-based, Homo sapiens; conditions: Homo sapiens, UO-31
Description: SANGER: Inhibition of human U031 cell growth in a cell viability assay.

OVCAR-5 = test: cells; format: functional, cell-based, Homo sapiens; conditions: Homo sapiens, OVCAR-5;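 note: growth inhibition of human OVCAR-5 cells, read out with a cell viability assay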
Description: SANGER: Inhibition of human OVCAR-5 cell growth in a cell viability assay.

HT-29 = test: cells; format: functional, cell-based, Homo sapiens; conditions: Homo sapiens, HT-29;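 note: growth inhibition of human HT-29 cells, read out by a cell viability assay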
Description: SANGER: Inhibition of human HT-29 cell growth in a cell viability assay.

NCI-H522 = test: cells; format: functional, cell-based, Homo sapiens; conditions: Homo sapiens, NCI-H522;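 note: cell viability assay measuring growth inhibition of human NCI-H522 cells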
Description: SANGER: Inhibition of human NCI-H522 cell growth in a cell viability assay.

SW13 = test: cells; format: functional, cell-based, Homo sapiens; conditions: Homo sapiens, SW13;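 note: IC50 is inhibition of SW13 cell growth, read out with a cell viability assay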
Description: SANGER: Inhibition of human SW13 cell growth in a cell viability assay.

KP-4 = test: cells; format: functional, cell-based, Homo sapiens; conditions: Homo sapiens, KP-4;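 note: human KP-4 cells, with growth inhibition read out through a cell viability assay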
Description: SANGER: Inhibition of human KP-4 cell growth in a cell viability assay.

NCI-H187 = test: cells; format: functional, cell-based, Homo sapiens; conditions: Homo sapiens, NCI-H187;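 note: growth inhibition of NCI-H187 cells, read out as cell viability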
Description: SANGER: Inhibition of human NCI-H187 cell growth in a cell viability assay.

NCI-H2196 = test: cells; format: functional, cell-based, Homo sapiens; conditions: Homo sapiens, NCI-H2196;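 note: cell viability assay used as the readout of growth inhibition in NCI-H2196 cells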
Description: SANGER: Inhibition of human NCI-H2196 cell growth in a cell viability assay.

S-117 = test: cells; format: functional, cell-based, Homo sapiens; conditions: Homo sapiens, S-117
Description: SANGER: Inhibition of human S-117 cell growth in a cell viability assay.

SW1783 = test: cells; format: functional, cell-based, Homo sapiens; conditions: Homo sapiens, SW1783
Description: SANGER: Inhibition of human SW1783 cell growth in a cell viability assay.

NCI-H889 = test: cells; format: functional, cell-based, Homo sapiens; conditions: Homo sapiens, NCI-H889;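 note: cell growth inhibition of the cell line, read out with a viability assay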
Description: SANGER: Inhibition of human NCI-H889 cell growth in a cell viability assay.

BC-3 = test: cells; format: functional, cell-based, Homo sapiens; conditions: Homo sapiens, BC-3;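 note: cell viability assay measuring growth inhibition of human BC-3 cells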
Description: SANGER: Inhibition of human BC-3 cell growth in a cell viability assay.

HCC1599 = test: cells; format: functional, cell-based, Homo sapiens; conditions: Homo sapiens, HCC1599;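 note: growth inhibition of HCC1599 cells, read out in a cell viability assay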
Description: SANGER: Inhibition of human HCC1599 cell growth in a cell viability assay.

SN12C = test: cells; format: functional, cell-based, Homo sapiens; conditions: Homo sapiens, SN12C;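 note: growth inhibition of human SN12C cells, measured by a cell viability assay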
Description: SANGER: Inhibition of human SN12C cell growth in a cell viability assay.

NCI-H2030 = test: cells; format: functional, cell-based, Homo sapiens; conditions: Homo sapiens, NCI-H2030;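 note: growth inhibition of human NCI-H2030 cells, read out by a cell viability assay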
Description: SANGER: Inhibition of human NCI-H2030 cell growth in a cell viability assay.

SW780 = test: cells; format: functional, cell-based, Homo sapiens; conditions: Homo sapiens, SW780;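 note: growth inhibition of the cells, read out with a cell viability assay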
Description: SANGER: Inhibition of human SW780 cell growth in a cell viability assay.

NCI-H345 = test: cells; format: functional, cell-based, Homo sapiens; conditions: Homo sapiens, NCI-H345;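 note: growth inhibition of NCI-H345 cells measured with a cell viability assay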
Description: SANGER: Inhibition of human NCI-H345 cell growth in a cell viability assay.

SK-MM-2 = test: cells; format: functional, cell-based, Homo sapiens; conditions: Homo sapiens, SK-MM-2;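 note: growth inhibition of human SK-MM-2 cells, read out with a cell viability assay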
Description: SANGER: Inhibition of human SK-MM-2 cell growth in a cell viability assay.

HOP-92 = test: cells; format: functional, cell-based, Homo sapiens; conditions: Homo sapiens, HOP-92;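 note: cell viability readout, with IC50 reflecting inhibition of HOP-92 cell growth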
Description: SANGER: Inhibition of human HOP-92 cell growth in a cell viability assay.

DOK = test: cells; format: functional, cell-based, Homo sapiens; conditions: Homo sapiens, DOK;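 note: cell viability assay read-out, values reflect inhibition of cell growth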
Description: SANGER: Inhibition of human DOK cell growth in a cell viability assay.

HCC38 = test: cells; format: functional, cell-based, Homo sapiens; conditions: Homo sapiens, HCC38;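 note: cell viability assay on the human HCC38 cell line, with IC50 marking the concentration that inhibits cell growth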
Description: SANGER: Inhibition of human HCC38 cell growth in a cell viability assay.

KYSE-510 = test: cells; format: functional, cell-based, Homo sapiens; conditions: Homo sapiens, KYSE-510;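 note: cell viability readout used to measure how strongly growth of the cell line is suppressed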
Description: SANGER: Inhibition of human KYSE-510 cell growth in a cell viability assay.

C-33-A = test: cells; format: functional, cell-based, Homo sapiens; conditions: Homo sapiens, C-33-A;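 note: cell viability assay measuring growth inhibition of C-33-A cells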
Description: SANGER: Inhibition of human C-33-A cell growth in a cell viability assay.

EB2 = test: cells; format: functional, cell-based, Homo sapiens; conditions: Homo sapiens, EB2;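 note: growth inhibition of EB2 cells, read out with a cell viability assay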
Description: SANGER: Inhibition of human EB2 cell growth in a cell viability assay.

23132-87 = test: cells; format: functional, cell-based, Homo sapiens; conditions: Homo sapiens
Description: SANGER: Inhibition of human 23132-87 cell growth in a cell viability assay.

HN = test: cells; format: functional, cell-based, Homo sapiens; conditions: Homo sapiens, HN
Description: SANGER: Inhibition of human HN cell growth in a cell viability assay.

N#Cc1c(O)c2c(-c3ccc(-c4ccccc4O)cc3)csc2[nH]c1=O
pIC50 (SJRH30): 6.31 | pIC50 (LN-405): < 5.99 | pIC50 (KMS-12-PE): 6.38 | pIC50 (RL): < 5.99 | pIC50 (LCLC-97TM1): < 5.99 | pIC50 (SK-OV-3): < 5.99 | pIC50 (BEN): < 5.99 | pIC50 (BC1 cell line): 7.16 | pIC50 (Daoy): < 5.99 | pIC50 (HT-1376): < 5.99 | pIC50 (RD): < 5.99 | pIC50 (A-431): 7.53 | pIC50 (SKG-IIIa): < 5.99 | pIC50 (SW1990): < 5.99 | pIC50 (A 172): < 5.99 | pIC50 (SK-MES-1): < 5.99 | pIC50 (T47D): < 5.99 | pIC50 (PC-3): < 5.99 | pIC50 (HCC1569): < 5.99 | pIC50 (HCC1937): < 5.99 | pIC50 (UO-31): < 5.99 | pIC50 (OVCAR-5): < 5.99 | pIC50 (HT-29): < 5.99 | pIC50 (NCI-H522): < 5.99 | pIC50 (SW13): < 5.99 | pIC50 (KP-4): < 5.99 | pIC50 (NCI-H187): 6.26 | pIC50 (NCI-H2196): 6.61 | pIC50 (S-117): < 5.99 | pIC50 (SW1783): < 5.99 | pIC50 (NCI-H889): < 5.99 | pIC50 (BC-3): < 5.99 | pIC50 (HCC1599): 6.56 | pIC50 (SN12C): < 5.99 | pIC50 (NCI-H2030): < 5.99 | pIC50 (SW780): < 5.99 | pIC50 (NCI-H345): < 5.99 | pIC50 (SK-MM-2): 6.96 | pIC50 (HOP-92): < 5.99 | pIC50 (DOK): < 5.99 | pIC50 (HCC38): < 5.99 | pIC50 (KYSE-510): < 5.99 | pIC50 (C-33-A): < 5.99 | pIC50 (EB2): 6.85 | pIC50 (23132-87): < 5.99 | pIC50 (HN): < 5.99

C=C(c1ccc(C(=O)O)cc1)c1cc2c(cc1C)C(C)(C)CCC2(C)C [BEXAROTENE]
pIC50 (SJRH30): < 5.10 | pIC50 (LN-405): < 5.10 | pIC50 (KMS-12-PE): < 5.10 | pIC50 (RL): < 5.10 | pIC50 (LCLC-97TM1): < 5.10 | pIC50 (SK-OV-3): < 5.10 | pIC50 (BEN): < 5.10 | pIC50 (BC1 cell line): < 5.10 | pIC50 (Daoy): < 5.10 | pIC50 (HT-1376): < 5.10 | pIC50 (RD): < 5.10 | pIC50 (A-431): < 5.10 | pIC50 (SKG-IIIa): < 5.10 | pIC50 (SW1990): < 5.10 | pIC50 (A 172): < 5.10 | pIC50 (SK-MES-1): < 5.10 | pIC50 (T47D): < 5.10 | pIC50 (PC-3): < 5.10 | pIC50 (HCC1569): < 5.10 | pIC50 (HCC1937): < 5.10 | pIC50 (UO-31): < 5.10 | pIC50 (OVCAR-5): < 5.10 | pIC50 (HT-29): < 5.10 | pIC50 (NCI-H522): < 5.10 | pIC50 (SW13): < 5.10 | pIC50 (NCI-H187): < 5.10 | pIC50 (NCI-H2196): < 5.10 | pIC50 (S-117): < 5.10 | pIC50 (SW1783): < 5.10 | pIC50 (NCI-H889): < 5.10 | pIC50 (BC-3): < 5.10 | pIC50 (HCC1599): < 5.10 | pIC50 (SN12C): < 5.10 | pIC50 (NCI-H2030): < 5.10 | pIC50 (SW780): < 5.10 | pIC50 (NCI-H345): < 5.10 | pIC50 (SK-MM-2): < 5.10 | pIC50 (HOP-92): < 5.10 | pIC50 (DOK): < 5.10 | pIC50 (HCC38): < 5.10 | pIC50 (KYSE-510): < 5.10 | pIC50 (C-33-A): < 5.10 | pIC50 (EB2): < 5.10 | pIC50 (23132-87): < 5.10 | pIC50 (HN): < 5.10

Nc1ccn([C@@H]2O[C@H](CO)[C@@H](O)C2(F)F)c(=O)n1 [GEMCITABINE]
pIC50 (SJRH30): 6.97 | pIC50 (LN-405): < 5.99 | pIC50 (KMS-12-PE): < 5.99 | pIC50 (RL): < 5.99 | pIC50 (LCLC-97TM1): > 8.40 | pIC50 (SK-OV-3): 7.41 | pIC50 (BEN): 6.62 | pIC50 (BC1 cell line): 7.47 | pIC50 (Daoy): > 8.40 | pIC50 (HT-1376): 6.43 | pIC50 (RD): 6.89 | pIC50 (A-431): > 8.40 | pIC50 (SKG-IIIa): 6.09 | pIC50 (SW1990): 6.95 | pIC50 (A 172): 7.61 | pIC50 (SK-MES-1): > 8.40 | pIC50 (T47D): < 5.99 | pIC50 (PC-3): < 5.99 | pIC50 (HCC1569): 6.96 | pIC50 (HCC1937): < 5.99 | pIC50 (UO-31): > 8.40 | pIC50 (OVCAR-5): 6.51 | pIC50 (HT-29): > 8.40 | pIC50 (NCI-H522): 8.36 | pIC50 (SW13): 6.48 | pIC50 (NCI-H187): < 5.99 | pIC50 (NCI-H2196): < 5.99 | pIC50 (S-117): < 5.99 | pIC50 (SW1783): > 8.40 | pIC50 (NCI-H889): < 5.99 | pIC50 (BC-3): 6.66 | pIC50 (HCC1599): 7.15 | pIC50 (SN12C): 6.30 | pIC50 (NCI-H2030): 7.52 | pIC50 (SW780): < 5.99 | pIC50 (NCI-H345): < 5.99 | pIC50 (SK-MM-2): 6.32 | pIC50 (HOP-92): 6.02 | pIC50 (DOK): < 5.99 | pIC50 (HCC38): 7.66 | pIC50 (KYSE-510): > 8.40 | pIC50 (C-33-A): > 8.40 | pIC50 (EB2): 8.70 | pIC50 (23132-87): 7.37 | pIC50 (HN): 7.27
